Measurements taken from patent EP1182931B1, “STABLE BIOCIDAL COMPOSITIONS” (NUFARM LIMITED, priority 1999, dated 2000).

Legend:
[1] = system: gastrointestinal roundworm; assay: Sheep trial CO52: faecal egg count reduction; assay type: in vivo; conditions: lambs, oral, six days after treatment, versus untreated controls, arithmetic mean
Description: An anthelmintic drench trial was conducted on a sheep farm in North Auckland, New Zealand using 67 Romney and Romney cross suffock lambs (18-35kg bodyweight) of mixed sex.
The 67 lambs were randomly allocated by egg count into 4 groups of 10 lambs (Groups A, B, C, D) and 3 groups of 9 lambs (Groups E, F, G). The 3 groups of 9 lambs (E, F G) were drenched with a commercial formulation from one of the three broad spectrum anthelmintic drench families consisting of albendazole, a member of the benzimidazole or white drenches (Group E), levamisole, a member of the imidazothiazole / tetrahydropyrimidazole or clear drenches (Group F) and Ivermectin, a member of the macrocyclic lactones (Group G). Of the 4 remaining groups, Group A remained as untreated controls, Group B received the unmineralised test product (formulation 00-27C) containing all 3 actives (albendazole, levamisole, ivermectin), Group C received the same basic formulation but with the addition of selenium as the sodium selenate (formulation 00-27B) and Group D received the same basic formulation but with the addition of both selenium and cobalt with cobalt given as the cobalt chelate (formulation 00-27A) - See Table 27.
All animals were weighed and dosed by syringe to the nearest 0.1ml with the appropriate product for that group. Six days after oral treatment the animals were slaughtered and faecal samples were collected at slaughter.

[2] = system: Nematodirus; assay: Trial C0040 sheep roundworm and tapeworm trial: worm count; assay type: in vivo; conditions: lambs, oral, slaughter Day 7 and Day 8
Description: (§1) Fifty three pasture fed 6-8 month old Romney lambs from the southern North Island, New Zealand that were naturally infected with tapeworms, were orally dosed with three times the standard dose of ivermectin (3 x 0.2 = 0.6mg/kg liveweight) to remove their naturally acquired roundworm infection while leaving their tapeworm burden. The animals were then housed indoors on slats to prevent natural reinfections with roundworms and each lamb was orally dosed daily for 5 days with a similar mixture of 5,000 roundworm larvae (total 25,000 larvae) consisting primarily of Haemonchus, Trichostrongylus, Ostertagia and Nematodirus. The larvae originated from four New Zealand sheep farms, three of which had evidence of resistance to one or more drench families. Lambs were injected with 0.5mL of a corticosteroid (opticortenol) two days prior to artificial oral larval infection. This was done to assist establishment of the worm larvae. 25 days after infection the animals were restrictively allocated to groups by bodyweight and also the presence of tapeworm infection, to one of seven treatment groups (Groups A-G). Four treatment groups (the untreated control and test products Groups A-D) had 8 animals per group, and three groups (E-G) contained 7 animals per group. The groups with 7 animals per group (E, F, G) were orally dosed with a single standard commercial product. All animals were slaughtered at Day 7 and Day 8 after treatment and total numbers of gastrointestinal roundworms and tapeworms counted.

[3] = system: Ostertagia; assay: as above; assay type: in vivo; conditions: lambs, oral, slaughter Day 7 and Day 8
Description: as §1

[4] = system: Gastrointestinal Worms; conditions: Spectrum of Activity; cited from earlier work
[5] = system: Protozoa; conditions: Spectrum of Activity; cited from earlier work
[6] = system: Haemonchus; assay: Trial C0040 sheep roundworm and tapeworm trial: worm count; assay type: in vivo; conditions: lambs, oral, slaughter Day 7 and Day 8, arithmetic means
Description: as §1

[7] = system: Trichostrongylus; assay: as above; assay type: in vivo; conditions: lambs, oral, slaughter Day 7 and Day 8
Description: as §1

[8] = system: Moniezia; assay: Trial C0040 sheep roundworm and tapeworm trial: tapeworm count; assay type: in vivo; conditions: lambs, oral, slaughter Day 7 and Day 8
Description: as §1, with “The groups with 7 animals per group (E, F, G) were orally dosed with a single standard commercial product.” left out

Compound	reductions in egg count [1]	reduction of Nematodirus in the small intestine [2]	removal of worm numbers, Ostertagia [3]	Nematodes Gastrointestinal Worms [4]	other results
c1ccc([C@H]2CN3CCSC3=N2)cc1 [Levamisole]	22%	99%	96%		
O=C(Nc1ccc(Oc2ccc(Cl)cc2)c(Cl)c1)c1cc(I)cc(I)c1O [Rafoxamide]				+(Haemonchus)	
Ivermectin	79%	100%	54%		
COC(=O)Nc1nc2cc(Sc3ccccc3)ccc2[nH]1 [Fendendazole]					Protozoa [5]: +(Giardia)
Cc1cc(C(C#N)c2ccc(Cl)cc2)c(Cl)cc1NC(=O)c1cc(I)cc(I)c1O (stereo not drawn) [Closantel]				+(Haemonchus)	
CCCSc1ccc2nc(NC(=O)OC)[nH]c2c1 [Albendazole]	63%	59%	64%		reduction in worm numbers, Haemonchus [6]: 93%; efficacy against Trichostrongylus in the small intestine [7]: 80%; effect on tapeworm Moniezia [8]: slight trend to less Moniezia volume; Protozoa [5]: +(Giardia)
N#Cc1cc(I)c(O)c([N+](=O)[O-])c1 [Nitroxyinil]				+(Haemonchus)	
O=C(Nc1cc(Cl)cc(Cl)c1O)c1c(O)c(Cl)cc(Cl)c1Cl [Oxydosanide]				+(Haemonchus)	
